Laboratory results taken from the supplement of paper PMC10307832.

What was measured:
[1] = compound: Cc1ccc2nc(NCCN)c3ncc(C)n3c2c1 + CCNC(=O)c1noc(-c2cc(C(C)C)c(O)cc2O)c1-c1ccc(CN2CCOCC2)cc1 [Luminespib] (partner 0.01 µM); assay: relative viability (nuclei count vs DMSO), 5 days (fraction); higher = more cells survive
Outline: (§1)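 Five library-drug doses in √10 steps were combined with a fixed anchor-drug dose, or a single drug was given alone, by pin tool to lung cancer cell lines in 1536-well plates the day after seeding. Nuclei were stained and counted after 5 days. Relative viability is the nuclei count in treated wells over that in vehicle wells, taken as the median of duplicate plates.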

[2] = compound: Cc1ccc2nc(NCCN)c3ncc(C)n3c2c1 + Cc1nc(Nc2ncc(C(=O)Nc3c(C)cccc3Cl)s2)cc(N2CCN(CCO)CC2)n1 [Dasatinib] (partner 0.075 µM); assay: as above
Outline: as §1

Cell Line | relative viability ([1]; first compound 0.04 µM) | relative viability ([1]; first compound 0.1265 µM) | relative viability ([1]; first compound 0.4 µM) | relative viability ([1]; first compound 1.265 µM) | relative viability ([1]; first compound 4 µM) | relative viability ([2]; first compound 0.04 µM) | relative viability ([2]; first compound 0.1265 µM) | relative viability ([2]; first compound 0.4 µM) | relative viability ([2]; first compound 1.265 µM) | relative viability ([2]; first compound 4 µM)
NCI-H2087 | 0.214 | 0.2 | 0.152 | 0.267 | 0.162 | 0.893 | 0.85 | 0.767 | 0.87 | 0.791
NCI-H1437 | 1.13 | 1.09 | 1.14 | 1.08 | 1.06 | 0.379 | 0.419 | 0.438 | 0.399 | 0.351
NCI-H358 | 0.309 | 0.373 | 0.236 | 0.326 | 0.313 | 0.177 | 0.157 | 0.182 | 0.154 | 0.22
NCI-H1792 | 0.49 | 0.434 |  | 0.396 | 0.432 | 0.741 | 0.624 | 0.816 | 0.704 | 0.382
ChaGo-K-1 | 0.7 | 0.565 | 0.608 | 0.517 | 0.643 | 0.551 | 0.659 | 0.659 | 0.504 | 0.566
NCI-H650 | 0.891 | 0.688 | 0.583 | 0.602 | 0.698 | 0.49 | 0.449 | 0.464 | 0.431 | 0.448
COR-L23 | 0.682 | 0.644 | 0.763 | 0.47 | 0.625 | 0.525 | 0.514 | 0.518 | 0.46 | 0.403
COR-L 105 | 0.921 | 0.529 | 0.603 | 0.57 | 0.497 | 0.446 | 0.385 | 0.416 | 0.402 | 0.343
LK-2 | 0.198 | 0.194 | 0.182 | 0.185 | 0.197 | 0.251 | 0.223 | 0.27 | 0.229 | 0.268
201T | 1.1 | 1.05 | 1.06 | 1.12 | 1.07 | 0.56 | 0.501 | 0.587 | 0.524 | 0.483
NCI-H596 | 1.12 | 0.959 | 0.967 | 0.215 | 1.05 | 0.677 | 0.645 | 0.524 | 0.524 | 0.648
H3255 | 0.878 | 1.01 | 0.824 | 0.926 | 0.76 | 0.396 | 0.393 | 0.45 | 0.383 | 0.387
NCI-H647 | 0.163 | 0.187 | 0.155 | 0.136 | 0.188 | 0.172 | 0.191 | 0.163 | 0.169 | 0.141
NCI-H2023 | 0.782 | 0.68 | 0.764 | 0.782 | 0.264 | 0.711 | 0.565 | 0.608 | 0.548 | 0.388
NCI-H23 | 0.207 | 0.227 |  | 0.201 | 0.217 | 0.934 | 0.798 | 0.73 | 0.779 | 0.728
NCI-H1623 | 0.478 | 0.684 | 0.51 | 0.346 | 0.348 | 0.525 | 0.664 | 0.523 | 0.482 | 0.494
NCI-H520 | 0.204 | 0.216 | 0.231 | 0.191 | 0.235 | 0.363 | 0.208 | 0.229 | 0.284 | 0.262
NCI-H460 | 0.0414 | 0.0267 | 0.0351 | 0.0331 | 0.0182 | 0.448 | 0.546 | 0.613 | 0.499 | 0.468
EKVX | 0.955 | 0.842 | 0.886 | 0.843 | 0.93 | 0.523 | 0.548 | 0.466 | 0.37 | 0.46
NCI-H1944 | 0.735 | 0.735 | 0.663 | 0.817 | 0.844 | 0.242 | 0.216 | 0.212 | 0.269 | 0.248
EPLC-272H | 0.272 | 0.253 | 0.196 | 0.299 | 0.159 | 0.414 | 0.411 | 0.489 | 0.406 | 0.382
NCI-H1563 | 0.491 | 0.509 | 0.517 | 0.466 | 0.485 | 0.459 | 0.488 | 0.539 | 0.433 | 0.454

Cell Line | relative viability ([1]; first compound 0.04 µM) | relative viability ([1]; first compound 0.1265 µM) | relative viability ([1]; first compound 0.4 µM) | relative viability ([1]; first compound 1.265 µM) | relative viability ([1]; first compound 4 µM) | relative viability ([2]; first compound 0.04 µM) | relative viability ([2]; first compound 0.1265 µM) | relative viability ([2]; first compound 0.4 µM) | relative viability ([2]; first compound 1.265 µM) | relative viability ([2]; first compound 4 µM)
NCI-H1395 | 0.828 | 0.701 | 0.664 | 0.534 | 0.761 | 0.48 | 0.425 | 0.374 | 0.37 | 0.407
NCI-H2126 | 0.998 | 0.867 | 0.917 | 0.89 | 0.832 | 0.663 | 0.696 | 0.592 | 0.549 | 0.493
LXF-289 | 0.633 | 0.816 | 0.653 | 0.706 | 0.618 | 0.262 | 0.231 | 0.247 | 0.245 | 0.275
NCI-H2009 | 1.03 | 1 | 1.05 | 1.01 | 0.792 | 0.391 | 0.284 | 0.313 | 0.283 | 0.263
SK-MES-1 | 0.835 | 0.791 | 0.74 | 0.772 | 0.74 | 0.489 | 0.339 | 0.392 | 0.35 | 0.305
NCI-H2405 | 0.841 | 0.631 | 0.732 | 0.563 | 0.595 | 0.204 | 0.192 | 0.188 | 0.185 | 0.208
NCI-H1755 | 0.42 | 0.359 | 0.339 | 0.288 | 0.48 | 0.475 | 0.423 | 0.445 | 0.359 | 0.393
LOU-NH91 | 0.342 | 0.31 | 0.31 | 0.36 | 0.318 | 0.562 | 0.547 | 0.531 | 0.539 | 0.559
NCI-H3122 | 0.101 | 0.11 | 0.0776 | 0.0857 | 0.0976 | 0.78 | 0.901 | 0.707 | 1.02 | 0.869
HCC-827 | 0.741 | 0.589 | 0.689 | 0.58 | 0.8 | 0.33 | 0.239 | 0.291 | 0.266 | 0.227
SK-LU-1 | 0.225 | 0.248 | 0.191 | 0.199 | 0.212 | 0.162 | 0.202 | 0.181 | 0.166 | 0.167
NCI-H1975 | 0.224 | 0.243 | 0.326 | 0.116 | 0.153 | 0.409 | 0.387 | 0.347 | 0.359 | 0.304
NCI-H1651 | 0.801 | 0.805 | 0.997 | 0.836 | 0.839 | 0.472 | 0.441 | 0.422 | 0.395 | 0.392
NCI-H441 | 0.285 | 0.482 | 0.312 | 0.465 | 0.322 | 0.556 | 0.552 | 0.551 | 0.673 | 0.445
LCLC-103H | 0.887 | 0.927 | 0.931 | 0.925 | 0.858 | 0.584 | 0.495 | 0.421 | 0.562 | 0.442
LCLC-97TM1 | 0.761 | 0.713 | 0.752 | 0.699 | 0.678 | 0.941 | 0.816 | 0.85 | 0.911 | 0.732
NCI-H727 | 0.36 |  | 0.358 | 0.385 | 0.4 | 0.4 |  | 0.338 | 0.321 | 0.365
NCI-H1355 | 0.844 | 0.73 | 0.722 | 0.691 | 0.732 | 0.712 | 0.728 | 0.678 | 0.667 | 0.638
HOP-62 | 0.916 | 0.941 | 0.648 | 0.965 | 0.913 | 0.772 | 0.626 | 0.644 | 0.634 | 0.649
NCI-H2085 | 0.492 | 0.463 | 0.446 | 0.442 | 0.393 | 0.207 | 0.263 | 0.222 | 0.196 | 0.243
SW 900 | 0.168 | 0.161 |  | 0.149 | 0.167 | 0.419 | 0.759 |  | 0.459 | 0.408
